In patent US20250186469A1, “THERAPEUTIC AGENT FOR OVARIAN CLEAR CELL CARCINOMA” (JSR CORPORATION, priority 2022, published 2025):

What was measured:
[1] = system: ovarian clear cell carcinoma organoid CCC19-042; assay: Drug sensitivity test for immunodeficient mouse transplanted with ovarian clear cell carcinoma organoid; type: in vivo; details: 1 mg/kg intraperitoneally twice a week from the 7th day after transplantation, versus DMSO vehicle; FIG. 15C
Method: The ovarian clear cell carcinoma organoid CCC19-042 was cultured until it reached a diameter of approximately 50 to 100 μm. The organoid was recovered in a 50 mL tube after removing the culture medium from the plate and then suspending the organoid in a Cell Recovery Solution (Corning, 354235). The solution including the recovered organoid was placed on ice and the Matrigel was depolymerized. After the completion of the reaction, the organoid was washed with a culture medium and re-suspended in the Matrigel so that 1×10^6 cells were present in 100 μL.
The organoid corresponding to 1×10^6 cells was transplanted subcutaneously (left shoulder) in an immunodeficient mouse, and the tumor forming ability was evaluated on the 7th day after the transplantation. In addition, a thinly sliced slide was created from an FFPE section of the tumor and subjected to HE staining and HNF1β immunostaining.
With regard to the immunodeficient mouse transplanted with the ovarian clear cell carcinoma organoid shown in Experimental Example 9, administration, measurement of a weekly body weight, and calculation of a tumor volume were performed from the 7th day after transplantation. […]
The tumor volume was calculated by the following expression.

[2] = system: ovarian clear cell carcinoma organoid; assay: Sensitivity test of ovarian clear cell carcinoma organoid (cell viability by ATP activity); type: cell-based, human; details: exposed for 3 days at 0.0001 to 10 μM, FIGS. 13, 14, 17
Method: Based on the above-described results of HTDS, the test focused on the proteasome inhibitors that were found with multiple hits among the 9 hit compounds. A proteasome inhibitor (bortezomib, carfilzomib, and ixazomib), a microtubule inhibitor (paclitaxel), and a platinum formulation (cisplatin and carboplatin) were prepared at each of final concentrations of 0.0001 μM, 0.001 µM, 0.01 μM, 0.1 μM, 1 μM, and 10 μM, the ovarian clear cell carcinoma organoid was exposed to each of the concentrations for 3 days, and the cell viability was measured by measuring the ATP activity.
FIGS. 13 and 14 show graphic views of the results of the measured cell viabilities.
For the CDK 1, 2, 5, and 9 inhibitor (dinaciclib) that was hit in the 9 compounds that were hit more in HTDS, the cell viability was measured by measuring an ATP activity in the same manner as in Experimental Example 8.

ovarian cancer organoid = assay: Sensitivity test of ovarian cancer organoid to PARP inhibitor (cell viability by ATP activity); type: cell-based, human; details: exposed for 3 days at 0.0001 to 10 μM; each cell line; FIG. 7
Method: A sensitivity test of the ovarian cancer organoid to olaparib was performed. Olaparib which is a kind of PARP inhibitor was prepared at a final concentration of each of 0.0001 μM, 0.001 μM, 0.01 μM, 0.1 μM, 1 μM, and 10 μM, and the ovarian cancer organoid was exposed to olaparib for 3 days at each concentration, and the cell viability was measured by measuring the ATP activity.
The vertical axis indicates the cell viability as a ratio to the control, and the horizontal axis indicates the final concentration (μM) of olaparib.

Structure (SMILES) | tumor volume [1] | cell viability [2] | cell viability (ratio to the control) (ovarian cancer organoid)
CC(C)C[C@H](NC(=O)[C@H](Cc1ccccc1)NC(=O)c1cnccn1)B(O)O [bortezomib] | decrease in tumor volume | significant decrease in cell viability depending on the concentration | 
CC(C)C[C@H](NC(=O)[C@H](CCc1ccccc1)NC(=O)CN1CCOCC1)C(=O)N[C@@H](Cc1ccccc1)C(=O)N[C@@H](CC(C)C)C(=O)[C@@]1(C)CO1 [carfilzomib] |  | significant decrease in cell viability depending on the concentration | 
CC(C)C[C@H](NC(=O)CNC(=O)c1cc(Cl)ccc1Cl)B(O)O [ixazomib] |  | significant decrease in cell viability depending on the concentration | 
O=C(c1cc(Cc2n[nH]c(=O)c3ccccc23)ccc1F)N1CCN(C(=O)C2CC2)CC1 [olaparib] |  |  | reduced depending on the concentration
CC(=O)O[C@H]1C(=O)[C@@]2(C)[C@H]([C@H](OC(=O)c3ccccc3)[C@]3(O)C[C@H](OC(=O)[C@H](O)[C@@H](NC(=O)c4ccccc4)c4ccccc4)C(C)=C1C3(C)C)[C@]1(OC(C)=O)CO[C@@H]1C[C@@H]2O [paclitaxel] |  | significant decrease in cell viability depending on the concentration | 
